# Source: PubChem BioAssay AID328 (DTP/NCI, 2004)
# Inconclusive results and toxic doses are left out.
# Test system: BDF1 mice, P388 leukemia ip, median survival T/C
# Assay: NCI In Vivo Anticancer Drug Screen. Data for tumor model P388 Leukemia (intraperitoneal) in B6D2F1 (BDF1) mice
# Conditions: endpoint: median survival time, higher = longer survival
# Method in brief: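 Compound-treated tumour-bearing mice were compared with vehicle-treated controls. Survival was recorded, and the value is the treated-group measurement divided by the control-group measurement (T/C).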
# [1] = dose: 100.0 mg/kg/injection, schedule: Q01DX009 (ip), vehicle: saline with Tween-80
# [2] = dose: 100.0 mg/kg/injection, schedule: Q04DX003 (ip), vehicle: saline with Tween-80
# [3] = dose: 200.0 mg/kg/injection, schedule: Q01DX009 (ip), vehicle: saline with Tween-80
# [4] = dose: 200.0 mg/kg/injection, schedule: Q04DX003 (ip), vehicle: saline with Tween-80
# [5] = dose: 400.0 mg/kg/injection, schedule: Q01DX009 (ip), vehicle: saline with Tween-80
# [6] = dose: 400.0 mg/kg/injection, schedule: Q04DX003 (ip), vehicle: saline with Tween-80
# [7] = dose: 50.0 mg/kg/injection, schedule: Q01DX009 (ip), vehicle: saline with Tween-80
# [8] = dose: 50.0 mg/kg/injection, schedule: Q04DX003 (ip), vehicle: Klucel (hydroxypropylcellulose) (HPC)
# [9] = dose: 100.0 mg/kg/injection, schedule: Q04DX003 (ip), vehicle: Klucel (hydroxypropylcellulose) (HPC)
# [10] = dose: 6.25 mg/kg/injection, schedule: Q01DX009 (ip), vehicle: Klucel (hydroxypropylcellulose) (HPC)
# [11] = dose: 12.5 mg/kg/injection, schedule: Q01DX009 (ip), vehicle: Klucel (hydroxypropylcellulose) (HPC)
smiles,measurement,setting,value
OC(c1ccc(Cl)cc1)C1CCNCC1 (stereo not drawn),T/C,"dose: 50.0 mg/kg/injection, schedule: Q01DX009 (ip), vehicle: saline",90 % of control
same,T/C,"dose: 100.0 mg/kg/injection, schedule: Q01DX009 (ip), vehicle: saline",102 % of control
C(=Nc1ccccc1)c1ccc(-c2ccccc2)cc1,T/C,[1],115 % of control
same,T/C,[2],104 % of control
same,T/C,[3],100 % of control
same,T/C,[4],104 % of control
same,T/C,[5],115 % of control
same,T/C,[6],109 % of control
CC(=O)NS(=O)(=O)c1ccc(NC(=O)c2ccccc2C(=O)O)cc1,T/C,"dose: 50.0 mg/kg/injection, schedule: Q04DX003 (ip), vehicle: saline with Tween-80",100 % of control
same,T/C,[2],100 % of control
same,T/C,[4],100 % of control
CC(=O)OC1(C)CC(C)(C)N=[N+]1[O-] (stereo not drawn),T/C,"dose: 12.5 mg/kg/injection, schedule: Q01DX005 (ip), vehicle: other",103 % of control
same,T/C,"dose: 25.0 mg/kg/injection, schedule: Q01DX005 (ip), vehicle: other",103 % of control
same,T/C,"dose: 50.0 mg/kg/injection, schedule: Q01DX005 (ip), vehicle: other",121 % of control
same,T/C,"dose: 100.0 mg/kg/injection, schedule: Q01DX005 (ip), vehicle: other",103 % of control
same,T/C,"dose: 200.0 mg/kg/injection, schedule: Q01DX005 (ip), vehicle: other",109 % of control
O=C(CN1CCCCC1)c1ccc2c(c1)Cc1cc(C(=O)CN3CCCCC3)ccc1O2,T/C,[7],98 % of control
same,T/C,[1],90 % of control
CC(c1ccccc1)(c1ccccc1)c1ccccc1,T/C,[7],101 % of control
same,T/C,[1],101 % of control
same,T/C,[3],97 % of control
O=C(O)c1cc(O)c(Br)c(O)c1,T/C,"dose: 100.0 mg/kg/injection, schedule: Q01DX001 (ip), vehicle: saline with Tween-80",109 % of control
same,T/C,"dose: 200.0 mg/kg/injection, schedule: Q01DX001 (ip), vehicle: saline with Tween-80",100 % of control
same,T/C,"dose: 400.0 mg/kg/injection, schedule: Q01DX001 (ip), vehicle: saline with Tween-80",104 % of control
C=C1C(=O)O[C@@H]2/C=C(/C)[C@@]3(O)C=C[C@](C)(C[C@@H](OC(=O)/C(=C\C)COC(C)=O)[C@@H]12)O3,T/C,"dose: 0.38 mg/kg/injection, schedule: Q01DX010 (ip), vehicle: carboxymethylcellulose (CMC)",90 % of control
same,T/C,"dose: 0.75 mg/kg/injection, schedule: Q01DX010 (ip), vehicle: carboxymethylcellulose (CMC)",95 % of control
same,T/C,"dose: 1.0 mg/kg/injection, schedule: Q01DX009 (ip), vehicle: carboxymethylcellulose (CMC)",103 % of control
same,T/C,"dose: 1.5 mg/kg/injection, schedule: Q01DX010 (ip), vehicle: carboxymethylcellulose (CMC)",109 % of control
same,T/C,"dose: 2.5 mg/kg/injection, schedule: Q01DX010 (ip), vehicle: saline",118 % of control
same,T/C,"dose: 3.0 mg/kg/injection, schedule: Q01DX010 (ip), vehicle: carboxymethylcellulose (CMC)",104 % of control
same,T/C,"dose: 5.0 mg/kg/injection, schedule: Q01DX010 (ip), vehicle: carboxymethylcellulose (CMC)",157 % of control
same,T/C,"dose: 5.0 mg/kg/injection, schedule: Q01DX010 (ip), vehicle: saline",122 % of control
same,T/C,"dose: 6.0 mg/kg/injection, schedule: Q01DX010 (ip), vehicle: carboxymethylcellulose (CMC)",163 % of control
same,T/C,"dose: 8.0 mg/kg/injection, schedule: Q01DX009 (ip), vehicle: carboxymethylcellulose (CMC)",117 % of control
same,T/C,"dose: 8.0 mg/kg/injection, schedule: Q01DX010 (ip), vehicle: carboxymethylcellulose (CMC)",157 % of control
same,T/C,"dose: 12.0 mg/kg/injection, schedule: Q01DX010 (ip), vehicle: carboxymethylcellulose (CMC)",118 % of control
same,T/C,"dose: 18.0 mg/kg/injection, schedule: Q01DX010 (ip), vehicle: saline",109 % of control
same,T/C,"dose: 27.0 mg/kg/injection, schedule: Q01DX010 (ip), vehicle: carboxymethylcellulose (CMC)",105 % of control
same,T/C,"dose: 40.0 mg/kg/injection, schedule: Q01DX010 (ip), vehicle: saline",100 % of control
CN1C2Oc3ccccc3C1Oc1ccccc12,T/C,[7],112 % of control
same,T/C,[1],99 % of control
same,T/C,[3],99 % of control
CCOC(=O)CC/[N+]([O-])=C/c1ccccc1,T/C,"dose: 12.5 mg/kg/injection, schedule: Q01DX009 (ip), vehicle: other",97 % of control
same,T/C,"dose: 25.0 mg/kg/injection, schedule: Q01DX009 (ip), vehicle: other",112 % of control
same,T/C,"dose: 50.0 mg/kg/injection, schedule: Q01DX009 (ip), vehicle: other",92 % of control
same,T/C,"dose: 100.0 mg/kg/injection, schedule: Q01DX009 (ip), vehicle: other",97 % of control
same,T/C,"dose: 200.0 mg/kg/injection, schedule: Q01DX009 (ip), vehicle: other",104 % of control
C=CC(=O)O,T/C,"dose: 0.2 mg/kg/injection, schedule: Q01DX001 (ip), vehicle: Klucel (hydroxypropylcellulose) (HPC)",95 % of control
same,T/C,"dose: 0.41 mg/kg/injection, schedule: Q01DX001 (ip), vehicle: Klucel (hydroxypropylcellulose) (HPC)",100 % of control
same,T/C,"dose: 0.82 mg/kg/injection, schedule: Q01DX001 (ip), vehicle: Klucel (hydroxypropylcellulose) (HPC)",104 % of control
same,T/C,"dose: 1.15 mg/kg/injection, schedule: Q04DX003 (ip), vehicle: Klucel (hydroxypropylcellulose) (HPC)",109 % of control
same,T/C,"dose: 1.65 mg/kg/injection, schedule: Q01DX001 (ip), vehicle: Klucel (hydroxypropylcellulose) (HPC)",115 % of control
same,T/C,"dose: 2.3 mg/kg/injection, schedule: Q04DX003 (ip), vehicle: Klucel (hydroxypropylcellulose) (HPC)",100 % of control
same,T/C,"dose: 3.0 mg/kg/injection, schedule: Q01DX009 (ip), vehicle: saline",100 % of control
same,T/C,"dose: 3.0 mg/kg/injection, schedule: Q04DX003 (ip), vehicle: saline sonified",109 % of control
same,T/C,"dose: 4.0 mg/kg/injection, schedule: Q04DX003 (ip), vehicle: saline",116 % of control
same,T/C,"dose: 4.6 mg/kg/injection, schedule: Q04DX003 (ip), vehicle: Klucel (hydroxypropylcellulose) (HPC)",100 % of control
same,T/C,"dose: 6.0 mg/kg/injection, schedule: Q01DX009 (ip), vehicle: saline",100 % of control
same,T/C,"dose: 6.0 mg/kg/injection, schedule: Q04DX003 (ip), vehicle: saline sonified",172 % of control
same,T/C,"dose: 6.6 mg/kg/injection, schedule: Q04DX003 (ip), vehicle: Klucel (hydroxypropylcellulose) (HPC)",109 % of control
same,T/C,"dose: 8.0 mg/kg/injection, schedule: Q04DX003 (ip), vehicle: saline",122 % of control
same,T/C,"dose: 12.0 mg/kg/injection, schedule: Q04DX003 (ip), vehicle: saline",122 % of control
same,T/C,"dose: 18.0 mg/kg/injection, schedule: Q04DX003 (ip), vehicle: saline",122 % of control
CC(C)=CCC/C(C)=C/CN1C(=O)c2ccccc2C1=O,T/C,[1],92 % of control
same,T/C,[2],87 % of control
same,T/C,[3],92 % of control
same,T/C,[4],96 % of control
same,T/C,[5],108 % of control
same,T/C,[6],94 % of control
COc1cc2c3c(c1)C(=O)CCN3CCC2,T/C,[8],95 % of control
same,T/C,[9],95 % of control
same,T/C,"dose: 200.0 mg/kg/injection, schedule: Q04DX003 (ip), vehicle: Klucel (hydroxypropylcellulose) (HPC)",87 % of control
CCN(CC)CCC1(C#N)Cc2ccccc2N(CC)c2ccccc21 (stereo not drawn),T/C,[1],107 % of control
same,T/C,[3],113 % of control
Cn1c(=O)c(S(C)=O)c(O)c2ccccc21 (stereo not drawn),T/C,[7],118 % of control
same,T/C,[1],100 % of control
same,T/C,[3],112 % of control
c1ccn2c(CSCc3nnc4ccccn34)nnc2c1,T/C,[7],100 % of control
same,T/C,[1],109 % of control
same,T/C,[3],109 % of control
CC(=O)N1C(=O)N(Cl)C(=O)C1(C)c1cccs1 (stereo not drawn),T/C,"dose: 66.0 mg/kg/injection, schedule: Q01DX009 (ip), vehicle: saline with Tween-80",97 % of control
same,T/C,[1],103 % of control
same,T/C,[3],100 % of control
CCN(CC)CCCC(C)Nc1cc(C)nc2cc(N(C)C)ccc12 (stereo not drawn),T/C,[10],117 % of control
same,T/C,[11],108 % of control
NC(=O)C(c1ccccc1)N1CCCCC1 (stereo not drawn),T/C,[10],109 % of control
same,T/C,[11],95 % of control
same,T/C,"dose: 25.0 mg/kg/injection, schedule: Q01DX009 (ip), vehicle: Klucel (hydroxypropylcellulose) (HPC)",95 % of control
same,T/C,"dose: 25.0 mg/kg/injection, schedule: Q04DX003 (ip), vehicle: Klucel (hydroxypropylcellulose) (HPC)",104 % of control
same,T/C,"dose: 50.0 mg/kg/injection, schedule: Q01DX009 (ip), vehicle: Klucel (hydroxypropylcellulose) (HPC)",91 % of control
same,T/C,[8],104 % of control
same,T/C,[9],108 % of control
[NH-]C(CCC(N)=O)C(=O)O.[NH-]C(CCC(N)=O)C(=O)O.[Zn+2] (stereo not drawn),T/C,"dose: 12.5 mg/kg/injection, schedule: Q01DX009 (ip), vehicle: saline with Tween-80",91 % of control
same,T/C,"dose: 25.0 mg/kg/injection, schedule: Q01DX009 (ip), vehicle: saline with Tween-80",108 % of control
same,T/C,[7],121 % of control
Cc1c(Cl)cccc1NC(=O)COc1ccc(Cl)cc1Cl,T/C,[2],108 % of control
same,T/C,[4],87 % of control
same,T/C,[6],95 % of control
